In patent US12653191B2, “Active compound combinations” (Bayer Aktiengesellschaft, priority 2020, dated 2026):
Read-outs that look alike come from different tables or passages of the source.

How the values were obtained:
[1] = system: Ustilago segetum var. avenae; test: in vitro-Test with fungal microorganisms, Method A (tables I1-I5); format: cell-based; settings: alone, read-out: Efficacy %
Outline: (§1)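 Readout: extinction at 620 nm, measured at start and again 3-5 days later, giving efficacy versus untreated control (0% = control growth, 100% = no growth). Compounds were evaporated from methanol/emulsifier before adding potato dextrose medium with fungal spores or mycelium; incubation 20° C, 85% RH.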

Diaporthe citri [2] = test: in vitro-Test with fungal microorganisms, Method B (tables F12-F15); format: cell-based
Method: Example: In Vitro-Test with Fungal Microorganisms
Wells of 96-well microtiter plates are filled with 30 μl of a preparation of test compound or compound combination in methanol+emulsifier alkylaryl-polyglycol-ether. Thereafter, the solvent is evaporated in a hood. At the next step, 200 μl of liquid growth medium is given, that has been amended with an appropriate concentration of spores or mycelium suspension of the test fungus.
With the aid of a photometer, the extinction in all wells is measured at the wavelength of 600 nm.
The microtiter plates are incubated for 3 to 7 days at 20° C. and 85% relative humidity. After the incubation inhibition of growth is determined photometrically. Efficacy is calculated in relation to the untreated control, 0% efficacy means fungal growth as high as in untreated control while 100% efficacy means no fungal growth is measured.
The data in tables A1 to A12, B1 to B14, C1 to C10, D1 to D8, E1 to E8, F1 to F11, G1 to G4, H1 to H4 and I1 to I5 were collected according to Method A. The data in tables A13 to A22, B15 to B18, C11 to C20, E9 to E16, F12 to F15, G5 to G15, H5 to H8, I6 to I11 and J1 to J11 were collected according to Method B.

Colletotrichum coccodes = test: in vitro-Test with fungal microorganisms, Method B (tables J1-J11); format: cell-based; settings: Colletotrichum coccodes, read-out: Efficacy %
Outline: (§2)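 Cpd in MeOH + alkylaryl-polyglycol-ether, solvent evaporated; liquid medium + fungal spores/mycelium added; OD600 read; 3–7 d, 20° C., 85% RH; growth inhibition by photometry, % efficacy vs untreated ctrl.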

Botrytis cinerea = test: in vitro-Test with fungal microorganisms, Method A (tables B1-B14); format: cell-based; settings: Botrytis cinerea
Outline: as §1

Diaporthe citri [3] = test: in vitro-Test with fungal microorganisms, Method A (tables F1-F11); format: cell-based; settings: Diaporthe citri, read-out: Efficacy
Outline: as §1

[4] = system: Colletotrichum lindemuthianum; test: in vitro-Test with fungal microorganisms, Method A (tables D1-D8); format: cell-based
Outline: as §1

Fusarium culmorum [5] = test: in vitro-Test with fungal microorganisms, Method A (tables G1-G4); format: cell-based
Outline: as §1

Cercospora beticola [6] = test: in vitro-Test with fungal microorganisms, Method B (tables C11-C20); format: cell-based; settings: Cercospora beticola, read-out: Efficacy %
Outline: as §2

Parastagonospora nodorum = test: in vitro-Test with fungal microorganisms, Method B (tables H5-H8); format: cell-based; settings: Parastagonospora nodorum, read-out: Efficacy
Outline: as §2

Alternaria alternate = test: in vitro-Test with fungal microorganisms, Method A (tables A1-A12); format: cell-based, Alternaria alternata; settings: Alternaria, applied alone, read-out: Efficacy %
Outline: as §1

Cordana musae [7] = test: in vitro-Test with fungal microorganisms, Method A (tables E1-E8); format: cell-based; settings: Neocordana musae, read-out: Efficacy %
Outline: as §1

Alternaria alternata = test: in vitro-Test with fungal microorganisms, Method B (tables A13-A22); format: cell-based; settings: Alternaria alternata, read-out: Efficacy
Outline: as §2

[8] = system: Ustilago segetum var. avenae; test: in vitro-Test with fungal microorganisms, Method B (tables I6-I11); format: cell-based; settings: read-out: Efficacy %
Outline: as §2

Cercospora beticola [9] = test: in vitro-Test with fungal microorganisms, Method A (tables C1-C10); format: cell-based; settings: Cercospora beticola, read-out: Efficacy %
Outline: as §1

Fusarium culmorum [10] = test: in vitro-Test with fungal microorganisms, Method B (tables G5-G15); format: cell-based; settings: Fusarium culmorum, single active compound, 0.08 ppm; read-out: Efficacy
Outline: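 Efficacy scale: 0% means growth equal to the untreated control, 100% means none detected. Compounds are dried from methanol with emulsifier before adding inoculated growth medium; incubation at 20° C., 85% relative humidity for 3 to 7 days precedes photometric inhibition readout.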

Cordana musae [11] = test: in vitro-Test with fungal microorganisms, Method B (tables E9-E16); format: cell-based; settings: for Efficacy %: single substance
Outline: as §2

SMILES: CON=C(C(=O)OC)c1ccccc1CON=C(C)c1cccc(C(F)(F)F)c1 [(3.020) trifloxystrobin, trifloxystrobin]
- inhibition of growth at 0.008 ppm ([1]; 0.008 ppm): 19%
- inhibition of growth at 0.04 ppm ([1]; 0.04 ppm): 0%
- inhibition of growth at 1 ppm ([1]; 1.0 ppm): 64%
- inhibition of growth at 5 ppm ([1]; 5.0 ppm): 100%
- Efficacy (Diaporthe citri [2]; Table F15, 0.008 ppm alone): 68%
- inhibition of growth at 0.04 ppm (Colletotrichum coccodes; 0.04 ppm): 35%
- inhibition of growth at 0.008 ppm (Colletotrichum coccodes; single active compound at 0.008 ppm): 0%
- inhibition of growth at 1 ppm (Colletotrichum coccodes; single active compound at 1 ppm): 50%
- inhibition of growth at 0.008 ppm (Botrytis cinerea; alone, 0.008 ppm, read-out: Efficacy %): 19%
- inhibition of growth at 0.04 ppm (Botrytis cinerea; alone, 0.04 ppm, read-out: Efficacy %): 0%
- inhibition of growth at 0.2 ppm (Botrytis cinerea; alone, 0.2 ppm, read-out: Efficacy %): 0%
- inhibition of growth at 1 ppm (Botrytis cinerea; alone, 1.0 ppm, read-out: Efficacy %): 37%
- inhibition of growth at 0.008 ppm (Diaporthe citri [3]; applied alone): 65%
- inhibition of growth at 0.04 ppm (Diaporthe citri [3]; applied alone): 95%
- inhibition of growth at 0.008 ppm (Diaporthe citri [3]; single active): 63%
- inhibition of growth at 0.04 ppm (Diaporthe citri [3]; single active): 95%
- inhibition of growth at 0.2 ppm (Diaporthe citri [3]; single active, 0.2 ppm): 95%
- inhibition of growth at 1 ppm (Diaporthe citri [3]; single active, 1.0 ppm): 96%
- inhibition of growth at 0.008 ppm ([4]; Colletotrichum lindemuthianum, mixing partner alone, 0.008 ppm, read-out: Efficacy %): 30%
- inhibition of growth at 0.04 ppm ([4]; Colletotrichum lindemuthianum, mixing partner alone, 0.04 ppm, read-out: Efficacy %): 80%
- inhibition of growth at 0.2 ppm ([4]; Colletotrichum lindemuthianum, mixing partner alone, 0.2 ppm, read-out: Efficacy %): 92%
- inhibition of growth at 1 ppm ([4]; Colletotrichum lindemuthianum, mixing partner alone, 1.0 ppm, read-out: Efficacy %): 88%
- inhibition of growth at 0.008 ppm ([4]; Colletotrichum lindemuthianum, single active at 0.008 ppm, read-out: Efficacy %): 25%
- inhibition of growth at 0.04 ppm ([4]; Colletotrichum lindemuthianum, single active at 0.04 ppm, read-out: Efficacy %): 66%
- inhibition of growth at 0.2 ppm ([4]; Colletotrichum lindemuthianum, single active at 0.2 ppm, read-out: Efficacy %): 85%
- inhibition of growth at 1 ppm ([4]; Colletotrichum lindemuthianum, single active at 1.0 ppm, read-out: Efficacy %): 84%
- inhibition of growth at 0.2 ppm (Fusarium culmorum [5]; Fusarium culmorum, 0.2 ppm, alone, read-out: Efficacy): 22%
- inhibition of growth at 1 ppm (Fusarium culmorum [5]; Fusarium culmorum, 1.0 ppm, alone, read-out: Efficacy): 5%
- inhibition of growth at 0.04 ppm (Fusarium culmorum [5]; Fusarium culmorum, Table G1, 0.04 ppm alone, read-out: Efficacy): 0%
- inhibition of growth at 0.2 ppm (Fusarium culmorum [5]; Fusarium culmorum, Table G1, 0.2 ppm alone, read-out: Efficacy): 15%
- inhibition of growth at 1 ppm (Fusarium culmorum [5]; Fusarium culmorum, Table G1, 1.0 ppm alone, read-out: Efficacy): 15%
- inhibition of growth at 0.008 ppm (Cercospora beticola [6]; single compound, 0.008 ppm): 96%
- inhibition of growth at 0.008 ppm (Parastagonospora nodorum; 0.008 ppm): 17%
- inhibition of growth at 0.04 ppm (Parastagonospora nodorum; 0.04 ppm): 54%
- inhibition of growth at 0.2 ppm (Parastagonospora nodorum; 0.2 ppm): 83%
- inhibition of growth at 1 ppm (Parastagonospora nodorum; 1 ppm): 87%
- inhibition of growth at 0.008 ppm (Alternaria alternate; 0.008 ppm): 44%
- inhibition of growth at 0.04 ppm (Alternaria alternate; 0.04 ppm): 87%
- inhibition of growth at 0.2 ppm (Alternaria alternate; 0.2 ppm): 95%
- inhibition of growth at 1 ppm (Alternaria alternate; 1.0 ppm): 96%
- inhibition of growth at 0.008 ppm (Cordana musae [7]; mixing partner alone): 3%
- inhibition of growth at 1 ppm (Cordana musae [7]; mixing partner alone): 66%
- inhibition of growth at 0.008 ppm (Cordana musae [7]; single substance): 13%
- inhibition of growth at 0.04 ppm (Cordana musae [7]; single substance, 0.04 ppm): 67%
- inhibition of growth at 0.2 ppm (Cordana musae [7]; single substance, 0.2 ppm): 48%
- inhibition of growth at 1 ppm (Cordana musae [7]; single substance): 77%
- inhibition of growth at 0.04 ppm (Alternaria alternata; 0.04 ppm): 49%
- inhibition of growth at 0.2 ppm (Alternaria alternata; 0.2 ppm): 85%
- inhibition of growth at 0.04 ppm ([8]; 0.04 ppm): 38%
- inhibition of growth at 0.2 ppm ([8]; 0.2 ppm): 54%
- inhibition of growth at 1 ppm ([8]; 1 ppm): 60%
- inhibition of growth at 0.008 ppm (Cercospora beticola [9]; 0.008 ppm alone): 95%
- inhibition of growth at 0.04 ppm (Cercospora beticola [9]; 0.04 ppm alone): 100%
- inhibition of growth at 0.2 ppm (Cercospora beticola [9]; 0.2 ppm alone): 100%
- inhibition of growth at 1 ppm (Cercospora beticola [9]; 1.0 ppm alone): 100%

SMILES: N#Cc1sc2c(=O)c3ccccc3c(=O)c=2sc1C#N [(5.010) dithianon, dithianon]
- inhibition of growth at 0.8 ppm ([1]; 0.8 ppm): 12%
- inhibition of growth at 4 ppm ([1]; 4.0 ppm): 100%
- inhibition of growth at 20 ppm ([1]; 20.0 ppm): 99%
- Efficacy (Diaporthe citri [2]; Table F13, 0.4 ppm alone): 13%
- inhibition of growth at 0.08 ppm (Colletotrichum coccodes; single active compound at 0.08 ppm): 0%
- inhibition of growth at 0.4 ppm (Colletotrichum coccodes; single active compound at 0.4 ppm): 11%
- inhibition of growth at 10 ppm (Colletotrichum coccodes; single active compound at 10 ppm): 100%
- inhibition of growth at 0.8 ppm (Botrytis cinerea; read-out: Efficacy): 0%
- inhibition of growth at 4 ppm (Botrytis cinerea; 4.0 ppm, read-out: Efficacy): 23%
- inhibition of growth at 20 ppm (Botrytis cinerea; read-out: Efficacy): 100%
- inhibition of growth at 0.8 ppm (Botrytis cinerea; alone, read-out: Efficacy %): 0%
- inhibition of growth at 20 ppm (Botrytis cinerea; alone, read-out: Efficacy %): 99%
- inhibition of growth at 0.8 ppm (Diaporthe citri [3]; Table F10, 0.8 ppm alone): 9%
- inhibition of growth at 4 ppm (Diaporthe citri [3]; Table F10, 4.0 ppm alone): 99%
- inhibition of growth at 20 ppm (Diaporthe citri [3]; Table F10, 20.0 ppm alone): 98%
- inhibition of growth at 0.8 ppm (Diaporthe citri [3]; applied alone, 0.8 ppm): 17%
- inhibition of growth at 20 ppm (Diaporthe citri [3]; applied alone, 20.0 ppm): 98%
- inhibition of growth at 0.08 ppm (Fusarium culmorum [10]): 4%
- inhibition of growth at 0.8 ppm ([4]; Colletotrichum lindemuthianum, single active at 0.8 ppm, read-out: Efficacy %): 0%
- inhibition of growth at 4 ppm ([4]; Colletotrichum lindemuthianum, single active at 4.0 ppm, read-out: Efficacy %): 100%
- inhibition of growth at 20 ppm ([4]; Colletotrichum lindemuthianum, single active at 20.0 ppm, read-out: Efficacy %): 100%
- Efficacy % ([4]; single active at 0.8 ppm): 0%
- Efficacy (Fusarium culmorum [5]; 20.0 ppm, alone): 100%
- inhibition of growth at 4 ppm (Fusarium culmorum [5]; Fusarium culmorum, 4.0 ppm, alone, read-out: Efficacy): 0%
- inhibition of growth at 0.08 ppm (Cercospora beticola [6]; 0.08 ppm): 0%
- inhibition of growth at 0.4 ppm (Cercospora beticola [6]; 0.4 ppm): 3%
- inhibition of growth at 2 ppm (Cercospora beticola [6]; 2 ppm): 100%
- inhibition of growth at 2 ppm (Cordana musae [11]; Neocordana musae, single active, 2 ppm, read-out: Efficacy): 95%
- Efficacy % (Cordana musae [11]; 0.08 ppm): 0%
- Efficacy % (Cordana musae [11]; 10 ppm): 100%
- inhibition of growth at 0.08 ppm (Parastagonospora nodorum; 0.08 ppm): 12%
- inhibition of growth at 0.4 ppm (Parastagonospora nodorum; 0.4 ppm): 5%
- inhibition of growth at 2 ppm (Parastagonospora nodorum; 2 ppm): 96%
- inhibition of growth at 0.8 ppm (Cordana musae [7]; single substance, 0.8 ppm): 0%
- inhibition of growth at 4 ppm (Cordana musae [7]; single substance, 4.0 ppm): 100%
- inhibition of growth at 0.4 ppm (Alternaria alternata; single compound, 0.4 ppm): 0%
- inhibition of growth at 2 ppm (Alternaria alternata; single compound, 2 ppm): 32%
- inhibition of growth at 0.08 ppm ([8]; 0.08 ppm): 2%
- inhibition of growth at 0.4 ppm ([8]; 0.4 ppm): 0%
- inhibition of growth at 2 ppm ([8]; 2 ppm): 29%
- inhibition of growth at 0.8 ppm (Cercospora beticola [9]; 0.8 ppm): 0%
- inhibition of growth at 4 ppm (Cercospora beticola [9]; 4.0 ppm alone): 100%
- inhibition of growth at 4 ppm (Cercospora beticola [9]; 4.0 ppm): 100%
- inhibition of growth at 20 ppm (Cercospora beticola [9]; 20.0 ppm alone): 99%
- inhibition of growth at 20 ppm (Cercospora beticola [9]; 20.0 ppm): 99%
